Laboratory results: US20230295197A1, “STAT5 and STAT6 Degraders and Uses Thereof” (REGENTS OF THE UNIVERSITY OF MICHICAN, priority 2022, published 2023)
Like-named read-outs stand apart in the source and are kept apart here.

Target: T1, STAT6 (Homo sapiens, UniProt P42226)
T1 construct: endogenous in cells; host or cells: MOLM-16, KU-812, SKNO1, MB231, L1236
T1 sequence (P42226 1-847): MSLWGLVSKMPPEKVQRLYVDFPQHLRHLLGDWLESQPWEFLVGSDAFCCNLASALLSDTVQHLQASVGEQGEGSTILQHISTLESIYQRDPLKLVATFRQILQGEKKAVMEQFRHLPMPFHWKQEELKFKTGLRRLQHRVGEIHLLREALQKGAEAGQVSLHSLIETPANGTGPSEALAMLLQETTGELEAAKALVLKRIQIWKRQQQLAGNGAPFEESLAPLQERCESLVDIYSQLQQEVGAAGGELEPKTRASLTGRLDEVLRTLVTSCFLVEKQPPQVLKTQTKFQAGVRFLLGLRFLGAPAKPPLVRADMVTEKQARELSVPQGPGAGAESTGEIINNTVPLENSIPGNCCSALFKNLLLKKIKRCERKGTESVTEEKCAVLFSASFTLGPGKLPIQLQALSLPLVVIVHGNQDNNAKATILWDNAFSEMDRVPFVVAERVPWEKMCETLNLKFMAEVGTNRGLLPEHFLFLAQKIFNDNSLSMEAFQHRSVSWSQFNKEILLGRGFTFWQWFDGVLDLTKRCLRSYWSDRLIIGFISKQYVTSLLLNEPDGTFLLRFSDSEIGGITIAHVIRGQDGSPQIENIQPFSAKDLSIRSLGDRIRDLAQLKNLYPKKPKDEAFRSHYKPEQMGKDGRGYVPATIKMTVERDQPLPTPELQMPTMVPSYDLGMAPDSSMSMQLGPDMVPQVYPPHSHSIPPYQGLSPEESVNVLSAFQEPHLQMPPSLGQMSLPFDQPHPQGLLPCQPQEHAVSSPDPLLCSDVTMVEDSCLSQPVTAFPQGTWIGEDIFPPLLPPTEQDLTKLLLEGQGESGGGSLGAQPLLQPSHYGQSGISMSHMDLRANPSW
Test: Immunoblotting (Western blot) analysis of STAT6 degradation efficiency of degraders in treated cells
Assay type: cell-based
Method in brief: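 Read-out: fluorescent IRDye 680RD/800CW secondaries imaged on an infrared scanner, with band intensities quantified by densitometry and GAPDH serving as loading control. Samples were RIPA lysates, BCA-normalised, from ~1 million treated cells.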

[1] = MOLM-16 cells, class symbols, read-out: DC50 S6 MOLM-16
[2] = L1236 cells, read-out: DC50 S6 L1236

Structure (SMILES) | DC50 [1] | DC50 [2] | other results
CC(C)(C)[C@H](NC(=O)c1cc2cc(C(F)(F)P(=O)(O)O)ccc2s1)C(=O)N1CCC[C@H]1C(=O)N(CCC(=O)NCCCCCCCCCC#Cc1cccc2c1CN(C1CCC(=O)NC1=O)C2=O)c1ccc(Br)cc1 (stereo partly drawn) [Compound 402, ((2-(((2S)-1-((2S)-2-((4-bromophenyl)(3-((11-(2-(2,6-dioxopiperidin-3-yl)-1-oxoisoindolin-4-yl)undec-10-yn-1-yl)amino)-3-oxopropyl)carbamoyl)pyrrolidin-1-yl)-3,3-dimethyl-1-oxobutan-2-yl)carbamoyl)benzo[b]thiophen-5-yl)difluoromethyl)phosphonic acid] |  |  | DC50 (MB231 cells, read-out: DC50 S6 MB231): > 10 µM
CC(C)(C)[C@H](NC(=O)c1cc2cc(C(F)(F)P(=O)(O)O)ccc2s1)C(=O)N1C[C@@H](OCC(=O)NCCCCC#Cc2ccc3c(c2)C(=O)N(C2CCC(=O)NC2=O)C3=O)C[C@H]1C(=O)N1CCO[C@H](c2ccccc2)C1 (stereo partly drawn) [Compound 486, ((2-(((2S)-1-((2S,4S)-4-(2-((6-(2-(2,6-dioxopiperidin-3-yl)-1,3-dioxoisoindolin-5-yl)hex-5-yn-1-yl)amino)-2-oxoethoxy)-2-((R)-2-phenylmorpholine-4-carbonyl)pyrrolidin-1-yl)-3,3-dimethyl-1-oxobutan-2-yl)carbamoyl)benzo[b]thiophen-5-yl)difluoromethyl)phosphonic acid] | > 10 µM |  | 
CC(C)(C)[C@H](NC(=O)c1cc2cc(C(F)(F)P(=O)(O)O)ccc2s1)C(=O)N1C[C@@H](OCC(=O)NCCCCCCCCC#Cc2ccc3c(c2)C(=O)N(C2CCC(=O)NC2=O)C3=O)C[C@H]1C(=O)N1CCC[C@H](c2ccccc2)C1 (stereo partly drawn) [Compound 504, ((2-(((2S)-1-((2S,4S)-4-(2-((10-(2-(2,6-dioxopiperidin-3-yl)-1,3-dioxoisoindolin-5-yl)dec-9-yn-1-yl)amino)-2-oxoethoxy)-2-((R)-3-phenylpiperidine-1-carbonyl)pyrrolidin-1-yl)-3,3-dimethyl-1-oxobutan-2-yl)carbamoyl)benzo[b]thiophen-5-yl)difluoromethyl)phosphonic acid] | > 10 µM |  | 
Cc1ncsc1-c1ccc([C@H](C)NC(=O)[C@@H]2C[C@@H](O)CN2C(=O)[C@@H](NC(=O)CCCNC(=O)COc2ccc3c(c2)CN(C(=O)[C@@H](NC(=O)c2cc4cc(C(F)(F)P(=O)(O)O)ccc4s2)C(C)(C)C)[C@H](C(=O)N2CCC[C@H](c4ccccc4)C2)C3)C(C)(C)C)cc1 [Compound 472, (difluoro(2-(((S)-1-((S)-7-(2-((4-(((S)-1-((2S,4R)-4-hydroxy-2-(((S)-1-(4-(4-methylthiazol-5-yl)phenyl)ethyl)carbamoyl)pyrrolidin-1-yl)-3,3-dimethyl-1-oxobutan-2-yl)amino)-4-oxobutyl)amino)-2-oxoethoxy)-3-((R)-3-phenylpiperidine-1-carbonyl)-3,4-dihydroisoquinolin-2(1H)-yl)-3,3-dimethyl-1-oxobutan-2-yl)carbamoyl)benzo[b]thiophen-5-yl)methyl)phosphonic acid] | > 10 µM |  | 
Cc1ncsc1-c1ccc([C@H](C)NC(=O)[C@@H]2C[C@@H](O)CN2C(=O)[C@@H](NC(=O)CNC(=O)CO[C@H]2C[C@@H](C(=O)N3CCC[C@H](c4ccccc4)C3)N(C(=O)[C@@H](NC(=O)c3cc4cc(C(F)(F)P(=O)(O)O)ccc4s3)C(C)(C)C)C2)C(C)(C)C)cc1 [Compound 434, (difluoro(2-(((S)-1-((2S,4S)-4-(2-((2-(((S)-1-((2S,4R)-4-hydroxy-2-(((S)-1-(4-(4-methylthiazol-5-yl)phenyl)ethyl)carbamoyl)pyrrolidin-1-yl)-3,3-dimethyl-1-oxobutan-2-yl)amino)-2-oxoethyl)amino)-2-oxoethoxy)-2-((R)-3-phenylpiperidine-1-carbonyl)pyrrolidin-1-yl)-3,3-dimethyl-1-oxobutan-2-yl)carbamoyl)benzo[b]thiophen-5-yl)methyl)phosphonic acid] | > 10 µM | > 10 µM | 
CC(C)(C)[C@H](NC(=O)c1cc2cc(C(F)(F)P(=O)(O)O)ccc2s1)C(=O)N1CCN(C(=O)CC(=O)NCCCCCCCCC#Cc2cccc3c2C(=O)N(C2CCC(=O)NC2=O)C3=O)C[C@H]1C(=O)N1CCO[C@H](c2ccccc2)C1 (stereo partly drawn) [Compound 517, ((2-(((2S)-1-((2S)-4-(3-((10-(2-(2,6-dioxopiperidin-3-yl)-1,3-dioxoisoindolin-4-yl)dec-9-yn-1-yl)amino)-3-oxopropanoyl)-2-((R)-2-phenylmorpholine-4-carbonyl)piperazin-1-yl)-3,3-dimethyl-1-oxobutan-2-yl)carbamoyl)benzo[b]thiophen-5-yl)difluoromethyl)phosphonic acid] | > 10 µM |  | 
CC(C)(C)[C@H](NC(=O)c1cc2cc(C(F)(F)P(=O)(O)O)ccc2s1)C(=O)N1CCN(C(=O)CC(=O)NCCCCCCCCCC#Cc2ccc3c(c2)C(=O)N(C2CCC(=O)NC2=O)C3=O)C[C@H]1C(=O)N1CCO[C@H](c2ccccc2)C1 (stereo partly drawn) [Compound 520, ((2-(((2S)-1-((2S)-4-(3-((11-(2-(2,6-dioxopiperidin-3-yl)-1,3-dioxoisoindolin-5-yl)undec-10-yn-1-yl)amino)-3-oxopropanoyl)-2-((R)-2-phenylmorpholine-4-carbonyl)piperazin-1-yl)-3,3-dimethyl-1-oxobutan-2-yl)carbamoyl)benzo[b]thiophen-5-yl)difluoromethyl)phosphonic acid] | > 10 µM |  | 
Cc1ncsc1-c1ccc([C@H](C)NC(=O)[C@@H]2C[C@@H](O)CN2C(=O)[C@@H](NC(=O)CCNC(=O)CC(=O)N2CCN(C(=O)[C@@H](NC(=O)c3cc4cc(C(F)(F)P(=O)(O)O)ccc4s3)C(C)(C)C)[C@H](C(=O)N3CCC[C@H](c4ccccc4)C3)C2)C(C)(C)C)cc1 [Compound 453, (difluoro(2-(((S)-1-((S)-4-(3-((3-(((S)-1-((2S,4R)-4-hydroxy-2-(((S)-1-(4-(4-methylthiazol-5-yl)phenyl)ethyl)carbamoyl)pyrrolidin-1-yl)-3,3-dimethyl-1-oxobutan-2-yl)amino)-3-oxopropyl)amino)-3-oxopropanoyl)-2-((R)-3-phenylpiperidine-1-carbonyl)piperazin-1-yl)-3,3-dimethyl-1-oxobutan-2-yl)carbamoyl)benzo[b]thiophen-5-yl)methyl)phosphonic acid] | > 10 µM | > 10 µM | 
Cc1ncsc1-c1ccc([C@H](C)NC(=O)[C@@H]2C[C@@H](O)CN2C(=O)[C@@H](NC(=O)CNC(=O)CC(=O)N2CCN(C(=O)[C@@H](NC(=O)c3cc4cc(C(F)(F)P(=O)(O)O)ccc4s3)C(C)(C)C)[C@H](C(=O)N3CCC[C@H](c4ccccc4)C3)C2)C(C)(C)C)cc1 [Compound 452, (difluoro(2-(((S)-1-((S)-4-(3-((2-(((S)-1-((2S,4R)-4-hydroxy-2-(((S)-1-(4-(4-methylthiazol-5-yl)phenyl)ethyl)carbamoyl)pyrrolidin-1-yl)-3,3-dimethyl-1-oxobutan-2-yl)amino)-2-oxoethyl)amino)-3-oxopropanoyl)-2-((R)-3-phenylpiperidine-1-carbonyl)piperazin-1-yl)-3,3-dimethyl-1-oxobutan-2-yl)carbamoyl)benzo[b]thiophen-5-yl)methyl)phosphonic acid] | > 10 µM | > 10 µM | 
Cc1ncsc1-c1ccc([C@H](C)NC(=O)[C@@H]2C[C@@H](O)CN2C(=O)[C@@H](NC(=O)CCCCCCNC(=O)CO[C@H]2C[C@@H](C(=O)N3CCC[C@H](c4ccccc4)C3)N(C(=O)[C@@H](NC(=O)c3cc4cc(C(F)(F)P(=O)(O)O)ccc4s3)C(C)(C)C)C2)C(C)(C)C)cc1 [Compound 439, (difluoro(2-(((S)-1-((2S,4S)-4-(2-((7-(((S)-1-((2S,4R)-4-hydroxy-2-(((S)-1-(4-(4-methylthiazol-5-yl)phenyl)ethyl)carbamoyl)pyrrolidin-1-yl)-3,3-dimethyl-1-oxobutan-2-yl)amino)-7-oxoheptyl)amino)-2-oxoethoxy)-2-((R)-3-phenylpiperidine-1-carbonyl)pyrrolidin-1-yl)-3,3-dimethyl-1-oxobutan-2-yl)carbamoyl)benzo[b]thiophen-5-yl)methyl)phosphonic acid] | > 10 µM | > 10 µM | 
CC(C)(C)[C@H](NC(=O)c1cc2cc(C(F)(F)P(=O)(O)O)ccc2s1)C(=O)N1C[C@@H](OCCCCCCNc2cccc3c2CN(C2CCC(=O)NC2=O)C3=O)C[C@H]1C(=O)N1CCO[C@H](c2ccccc2)C1 (stereo partly drawn) [Compound 599, ((2-(((2S)-1-((2S,4S)-4-((6-((2-(2,6-dioxopiperidin-3-yl)-1-oxoisoindolin-4-yl)amino)hexyl)oxy)-2-((R)-2-phenylmorpholine-4-carbonyl)pyrrolidin-1-yl)-3,3-dimethyl-1-oxobutan-2-yl)carbamoyl)benzo[b]thiophen-5-yl)difluoromethyl)phosphonic acid] |  |  | DC50 (MOLM-16 cells, numeric bound, read-out: DC50 S6 MOLM-16): > 0.3 µM
